Reference: US20180213796A1, “PLANT DISEASE CONTROL COMPOSITION AND PLANT DISEASE CONTROL METHOD” (SUMITOMO CHEMICAL COMPANY, LIMITED, priority 2015, published 2018)

Experiments:
[1] = test system: damping-off fungus (Rhizoctonia solani); assay: Test Example 14: corn seed treatment, pot test in soil mixed with damping-off fungus, control value; assay type: in vivo; settings: corn seeds, 20 days after
Procedure: In a rotary seed treatment machine (trade name: HEGE11, manufactured by […]), corn seeds (variety: yellow dent corn) were treated by smearing treatment using a flowable formulation of the present bacterial strain as obtained in Formulation Example 19, metconazole flowable formulation (40.0% flowable formulation, trade name: Metolock Fungicide, Valent U.S.A. Corporation), a chemical liquid prepared by dissolving tebuconazole in acetone/Tween 20 (weight ratio=95:5) and diluting with water, a chemical liquid prepared by dissolving prothioconazole in acetone/Tween 20 (weight ratio=95:5) and diluting with water, a chemical liquid prepared by dissolving difenoconazole in acetone/Tween 20 (weight ratio=95:5) and diluting with water, a chemical liquid prepared by dissolving triticonazole in acetone/Tween 20 (weight ratio=95:5) and diluting with water, a chemical liquid prepared by dissolving triadimenol in acetone/Tween 20 (weight ratio=95:5) and diluting with water, a chemical liquid prepared by dissolving bromconazole in acetone/Tween 20 (weight ratio=95:5) and diluting with water, so that the soybean seeds retain the present bacterial strain and the compound in the amount shown in Table 4.
Cultivation was carried out in a greenhouse under irrigation (“treated compartment”). The plants were investigated 20 days after for the number of diseased plants, and the disease incidence was calculated by the following “Equation 1”. […] The plants were investigated 20 days after for the number of diseased plants, and the disease incidence was calculated by the following “Equation 1”. The control value of the treated compartment was calculated by the following equation “Equation 2”, based on the disease incidences of the treated compartment and the untreated compartment.
Disease incidence (%)=100×(number of diseased plant/total number of seeded seeds) Equation 1
Control value (%)=100×[(disease incidence in untreated compartment−disease incidence in treated compartment)/disease incidence in untreated compartment] Equation 2 […]

[2] = test system: damping-off fungus (Rhizoctonia solani); assay: Test Example 15: soybean seed treatment, pot test in soil mixed with damping-off fungus, control value; assay type: in vivo; settings: soybean seeds, 20 days after
Procedure: In a rotary seed treatment machine (trade name: HEGE11, manufactured by WINTERSTEIGER), soybean seeds (variety: “Hatayutaka”) were treated by smearing treatment using the flowable formulation of the present bacterial strain obtained in Formulation Example 19 and a chemical liquid wherein ipconazole was dissolved in acetone/Tween 20 (weight ratio=95:5) and diluted with water, so that the soybean seeds retain the present bacterial strain and the compound in the amount shown in Table 5.
Cultivation was carried out in a greenhouse under irrigation (“treated compartment”). The plants were investigated 20 days after for the number of diseased plants, and the disease incidence was calculated by the following “Equation 1”. Also, similar procedures were conducted using untreated soybean seeds, instead of the treated soybean seeds, as described above for the treated compartment (“untreated compartment”). The plants were investigated 20 days after for the number of diseased plants, and the disease incidence was calculated by the following “Equation 1”. The control value of the treated compartment was calculated by the following equation “Equation 2”, based on the disease incidences of the treated compartment and the untreated compartment.
Disease incidence (%)=100×(number of diseased plant/total number of seeded seeds) Equation 1 […]

[3] = compound alone 0.005 g/Kg seeds

Clc1ccc(C2(Cn3cncn3)CC(Br)CO2)c(Cl)c1 (stereo not shown) [Bromconazole]
Controlling Effect (control value) [1, 3]: 17% | Controlling Effect (control value) ([1]; compound alone 0.01 g/Kg seeds): 33%

CC1COC(Cn2cncn2)(c2ccc(Oc3ccc(Cl)cc3)cc2Cl)O1 (stereo not shown) [Difenoconazole]
Controlling Effect (control value) ([1]; compound alone 0.0025 g/Kg seeds): 33% | Controlling Effect (control value) [1, 3]: 58%

CC1(C)CCC(=Cc2ccc(Cl)cc2)C1(O)Cn1cncn1 (stereo not shown) [Triticonazole]
Controlling Effect (control value) [1, 3]: 17% | Controlling Effect (control value) ([1]; compound alone 0.01 g/Kg seeds): 25%

CC(C)(C)C(O)C(Oc1ccc(Cl)cc1)n1cncn1 (stereo not shown) [Triadimenol]
Controlling Effect (control value) [1, 3]: 33% | Controlling Effect (control value) ([1]; compound alone 0.01 g/Kg seeds): 42%

CC1(C)CCC(Cc2ccc(Cl)cc2)C1(O)Cn1cncn1 (stereo not shown) [Metconazole]
Controlling Effect (control value) ([1]; compound alone 0.0005 g/Kg seeds): 25% | Controlling Effect (control value) ([1]; compound alone 0.001 g/Kg seeds): 33%

CC(C)(C)C(O)(CCc1ccc(Cl)cc1)Cn1cncn1 (stereo not shown) [Tebuconazole]
Controlling Effect (control value) ([1]; compound alone 0.01 g/Kg seeds): 25% | Controlling Effect (control value) ([1]; compound alone 0.02 g/Kg seeds): 33%

OC(Cc1ccccc1Cl)(Cn1nc[nH]c1=S)C1(Cl)CC1 (stereo not shown) [Prothioconazole]
Controlling Effect (control value) [1, 3]: 42% | Controlling Effect (control value) ([1]; compound alone 0.01 g/Kg seeds): 50%

CC(C)C1CCC(Cc2ccc(Cl)cc2)C1(O)Cn1cncn1 (stereo not shown) [Ipconazole]
Controlling Effect (control value) [2, 3]: 27% | Controlling Effect (control value) ([2]; compound alone 0.01 g/Kg seeds): 33%
